The text below walks through data of patent US20090062401A1, “DECALINE-DERIVED COMPOUNDS AS […] ACTIVE AGENTS” (UNIVERSITAT DORTMUND, priority 2004, published 2009).

For assay [1], the target named is T1, Cdc25A (Homo sapiens, UniProt P30304).
T1 sequence (P30304 1-524): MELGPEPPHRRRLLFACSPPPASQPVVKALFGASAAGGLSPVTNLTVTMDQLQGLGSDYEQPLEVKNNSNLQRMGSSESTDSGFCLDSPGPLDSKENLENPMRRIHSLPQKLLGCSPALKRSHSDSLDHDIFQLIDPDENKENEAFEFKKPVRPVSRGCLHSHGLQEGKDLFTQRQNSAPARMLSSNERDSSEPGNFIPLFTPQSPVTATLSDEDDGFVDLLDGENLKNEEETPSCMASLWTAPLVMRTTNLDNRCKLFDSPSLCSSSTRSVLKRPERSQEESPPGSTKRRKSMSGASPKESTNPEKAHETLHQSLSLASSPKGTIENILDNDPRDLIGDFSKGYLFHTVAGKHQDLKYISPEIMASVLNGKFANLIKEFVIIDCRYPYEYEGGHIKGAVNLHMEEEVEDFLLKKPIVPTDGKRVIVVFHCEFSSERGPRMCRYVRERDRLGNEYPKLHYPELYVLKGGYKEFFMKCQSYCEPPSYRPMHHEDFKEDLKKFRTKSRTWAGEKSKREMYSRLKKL
Nature of the assay: Cdc25A phosphatase inhibition. Type of assay: biochemical. An excerpt:
(§1) Assay protocols for Cdc25A, 11βHSD1, 11βHSD2, and AChE are described in detain in the publication of Koch M A, Wittenberg L O, Basu S, Jeyaraj D A, Gourzoulidou E, Reinecke K, Odermatt A, Waldmann H (Proc. Natl. Acad. Sci. U.S.A. 2004 Nov. 30; 101(48):16721-6) and in Koch M A et al., Proc. Natl. Acad. Sci. U.S.A. 2005 Nov. 29; 102 (48):17272-7.

For assay [2], the target named is 11beta-HSD1 (Homo sapiens, UniProt P28845). Nature of the assay: biochemical. As to conditions: read-out: IC50 Target 11beta-HSD1.
11beta-HSD1, sequence (P28845 whole entry): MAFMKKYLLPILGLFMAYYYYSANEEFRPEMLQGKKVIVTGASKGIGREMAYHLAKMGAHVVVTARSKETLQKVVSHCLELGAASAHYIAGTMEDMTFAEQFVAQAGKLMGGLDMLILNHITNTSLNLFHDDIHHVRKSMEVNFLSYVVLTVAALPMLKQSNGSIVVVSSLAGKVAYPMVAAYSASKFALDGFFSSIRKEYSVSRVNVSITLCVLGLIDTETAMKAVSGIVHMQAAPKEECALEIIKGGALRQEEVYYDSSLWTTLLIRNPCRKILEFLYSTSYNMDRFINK
Excerpt: as §1

Assay [3] deals with T2, PTP1B (Homo sapiens, UniProt P18031).
T2 sequence (P18031 1-435): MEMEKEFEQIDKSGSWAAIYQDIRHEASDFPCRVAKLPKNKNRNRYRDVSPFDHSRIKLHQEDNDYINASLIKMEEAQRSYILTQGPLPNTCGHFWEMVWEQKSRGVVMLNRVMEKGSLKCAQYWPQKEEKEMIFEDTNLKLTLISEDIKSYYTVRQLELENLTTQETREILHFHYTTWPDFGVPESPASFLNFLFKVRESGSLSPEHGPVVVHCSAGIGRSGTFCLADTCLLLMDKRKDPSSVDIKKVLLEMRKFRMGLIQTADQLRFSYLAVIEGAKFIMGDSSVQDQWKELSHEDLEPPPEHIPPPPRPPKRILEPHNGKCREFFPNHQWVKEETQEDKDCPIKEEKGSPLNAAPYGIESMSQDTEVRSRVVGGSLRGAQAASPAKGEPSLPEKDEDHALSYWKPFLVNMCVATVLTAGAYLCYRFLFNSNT
The assay can be described thus: PTP1B phosphatase inhibition, general phosphatase assay using para-nitrophenylphosphate. The assay is classed as biochemical. An excerpt: (§2) Assays protocols for the other enzymes mentioned herein (MtPTPA, PP1, VHR, PTP1B) are disclosed in Schweizer R A S, Atanasov, G A, Frey B M, and Odermatt A, Mol. Cell. Endocrinol. 2003, 212, 41-49 and Barratte, B., Meijer L., Galaktionov K. & Beach D, Anticancer Res. 1992, 12, 873-880. For determination of the phosphatase activity, a general phosphatase assay using para-nitrophenylphosphate was applied.

Assay [4] deals with PP1. Nature of the assay: PP1 phosphatase inhibition, general phosphatase assay using para-nitrophenylphosphate. Type of assay: biochemical. As to conditions: read-out: IC50 Target PP1.
Excerpt: as §2

Assay [5] deals with T3, 11beta-HSD2 (Homo sapiens, UniProt P80365).
T3 sequence (P80365 1-405): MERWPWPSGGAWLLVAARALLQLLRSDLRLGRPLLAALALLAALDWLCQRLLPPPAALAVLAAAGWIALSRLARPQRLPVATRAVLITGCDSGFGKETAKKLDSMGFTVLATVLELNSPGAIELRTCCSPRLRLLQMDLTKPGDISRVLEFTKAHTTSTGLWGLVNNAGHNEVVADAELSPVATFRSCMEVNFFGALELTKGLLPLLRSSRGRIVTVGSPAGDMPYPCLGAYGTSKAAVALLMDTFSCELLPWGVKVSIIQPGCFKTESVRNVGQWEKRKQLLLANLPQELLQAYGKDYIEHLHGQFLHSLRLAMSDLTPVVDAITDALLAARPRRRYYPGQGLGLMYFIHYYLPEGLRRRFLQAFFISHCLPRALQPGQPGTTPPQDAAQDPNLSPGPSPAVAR
The assay can be described thus: 11beta-HSD2 inhibition. The assay is classed as biochemical. As to conditions: read-out: IC50 Target 11beta-HSD2.
Excerpt: as §1

The target in assay [6] is VHR (Homo sapiens, UniProt P51452). The assay can be described thus: VHR phosphatase inhibition, general phosphatase assay using para-nitrophenylphosphate. The assay is classed as biochemical. As to conditions: read-out: IC50 Target VHR.
VHR, sequence (P51452 whole entry, species assumed): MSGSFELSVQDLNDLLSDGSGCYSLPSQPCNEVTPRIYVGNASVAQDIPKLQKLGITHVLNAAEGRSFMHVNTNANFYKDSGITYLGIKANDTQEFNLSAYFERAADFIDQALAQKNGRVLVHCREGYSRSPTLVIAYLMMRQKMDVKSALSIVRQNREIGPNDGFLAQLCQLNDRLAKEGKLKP
Excerpt: as §2

For assay [7], the target named is MPTPA (Mycobacterium tuberculosis, UniProt P9WIA1). The assay can be described thus: MtPTPA phosphatase inhibition, general phosphatase assay using para-nitrophenylphosphate. The assay is classed as biochemical.
MPTPA, sequence (P9WIA1 whole entry): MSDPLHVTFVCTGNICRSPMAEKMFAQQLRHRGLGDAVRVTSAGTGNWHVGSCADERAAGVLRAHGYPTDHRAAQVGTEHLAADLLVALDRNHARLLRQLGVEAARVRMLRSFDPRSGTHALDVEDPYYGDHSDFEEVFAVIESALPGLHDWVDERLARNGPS
Excerpt: as §2

For assay [8], the target named is AChE (Homo sapiens, UniProt P22303). Nature of the assay: Acetylcholinesterase inhibition. The assay is classed as biochemical.
AChE, sequence (P22303 32-614): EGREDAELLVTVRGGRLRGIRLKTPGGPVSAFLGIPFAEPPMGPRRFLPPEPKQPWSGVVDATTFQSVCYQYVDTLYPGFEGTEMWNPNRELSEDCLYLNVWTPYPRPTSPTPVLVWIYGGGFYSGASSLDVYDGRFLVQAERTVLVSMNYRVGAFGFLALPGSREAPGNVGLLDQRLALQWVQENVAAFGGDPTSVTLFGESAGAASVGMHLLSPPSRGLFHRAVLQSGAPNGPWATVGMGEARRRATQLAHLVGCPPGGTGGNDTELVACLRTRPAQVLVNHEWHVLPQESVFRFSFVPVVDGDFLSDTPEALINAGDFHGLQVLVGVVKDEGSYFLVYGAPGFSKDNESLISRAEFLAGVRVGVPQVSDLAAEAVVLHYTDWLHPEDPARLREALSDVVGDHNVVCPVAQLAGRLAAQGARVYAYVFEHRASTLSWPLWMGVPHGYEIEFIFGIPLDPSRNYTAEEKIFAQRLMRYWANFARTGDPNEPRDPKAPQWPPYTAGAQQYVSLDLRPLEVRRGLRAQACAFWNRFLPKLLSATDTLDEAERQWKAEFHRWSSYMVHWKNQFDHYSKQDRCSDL
Excerpt: as §1

Where two headings read alike, the source gives them in different places.

As usually defined, the IC50 is the point on the concentration scale where inhibition reaches its midpoint. Take `CC1=C2CCC[C@H](O)[C@@]2(C)C/C(=C\c2cc3ccccc3o2)C1=O` [Compound 4, (3E,4aS,5S)-3-[(Benzofuran-2-yl)methylen]-4,4a,5,6,7,8-hexahydro-5-hydroxy-1,4a-dimethyl-naphthalen-2(3H)-one]: the IC50 in assay [1] (read-out: IC50 Target Cdc25A) was 10 to 50 µM; in assay [2] it was less than 10 µM; in assay [3] (read-out: IC50 Target PTP1B), 10 to 50 µM; in assay [4] it was 10 to 50 µM.

On to `CC1=C2CCC[C@H](O)[C@@]2(C)C/C(=C\c2cc(Cl)cs2)C1=O` [Compound 12, (3E,4aS,5S)-3-[(4-Chlorthiophen-2-yl)methylen]-4,4a,5,6,7,8-hexahydro-5-hydroxy-1,4a-dimethylnaphthalen-2(3H)-one], for which the IC50 is less than 10 µM in assay [2], 10 to 50 µM in assay [3] (read-out: IC50 Target PTP1B) and 10 to 50 µM in assay [4].

Turning to `CCc1cc(OC)ccc1/C=C1\C[C@@]2(C)C(=C(C)C1=O)CCC[C@@H]2O` [Compound 15, (3E,4aS,5S)-3-(2-Ethyl-4-methoxybenzyliden)-4,4a,5,6,7,8-hexahydro-5-hydroxy-1,4a-dimethylnaphthalen-2(3H)-one], the IC50 in assay [2] was less than 10 µM; in assay [5] it was 10 to 50 µM.

Take `CC1=C2CCC[C@H](O)[C@@]2(C)C/C(=C\c2ccc([N+](=O)[O-])cc2)C1=O` [Compound 17, (3E,4aS,5S)-3-(4-Nitrobenzyliden)-4,4a,5,6,7,8-hexahydro-5-hydroxy-1,4a-dimethylnaphthalen-2(3H)-one]: the 50% inhibitory concentration (IC50) in assay [3] (read-out: IC50 Target PTP1B) and in assay [4] was 10 to 50 µM throughout.

Consider `CC1=C2CC/C(=C\c3ccco3)C(=O)[C@@]2(C)CCC1O` (stereo partly drawn) [Compound 25, (2E,8aS)-2-[(Furan-2-yl)methylen]-3,4,6,7,8,8a-hexahydro-6-hydroxy-5,8a-dimethylnaphthalen-1(2H)-one], for which the IC50 in assay [6], in assay [4] and in assay [7] (read-out: IC50 Target MPTPA) was 10 to 50 µM throughout.

As to `CC(=O)Oc1cccc(/C=C2\C[C@@]3(C)C(=C(C)C2=O)CCC[C@@H]3O)c1` [Compound 26, 3-{(1E)-[(4S,4aS)-1,2,3,4,4a,5-Hexahydro-4-hydroxy-4a,8-dimethyl-7-oxonaphthalen-6(7H)-yliden]methyl}phenylacetat], the IC50 in assay [2] is less than 10 µM; in assay [3] (read-out: IC50 Target PTP1B) it was 10 to 50 µM; in assay [6], 10 to 50 µM; in assay [4], 10 to 50 µM.

For `C/C=C/C=C1\C[C@@]2(C)C(=C(C)C1=O)CCC[C@@H]2O` [Compound 29, (3E,4aS,5S)-3-[(E)-But-2-enyliden]-4,4a,5,6,7,8-hexahydro-5-hydroxy-1,4a-dimethylnaphthalen-2(3H)-one], the IC50 in assay [1] (read-out: IC50 Target Cdc25A) is 10 to 50 µM; in assay [2], less than 10 µM; in assay [3] (read-out: IC50 Target PTP1B) it was less than 10 µM; in assay [5], less than 10 µM; in assay [8], less than 10 µM.

With `CC(=O)Oc1ccc(/C=C2\C[C@@]3(C)C(=C(C)C2=O)CCC[C@@H]3O)cc1` [Compound 31, 4-{(1E)-[(4S,4aS)-1,2,3,4,4a,5-Hexahydro-4-hydroxy-4a,8-dimethyl-7-oxonaphthalen-6(7H)-yliden]methyl}phenylacetat], the IC50 in assay [2] was less than 10 µM; in assay [3] (read-out: IC50 Target PTP1B), 10 to 50 µM; in assay [5] it was 10 to 50 µM; in assay [8] (read-out: IC50 Target AChE) it was less than 10 µM.

Turning to `CCC/C=C1\C[C@@]2(C)C(=C(C)C1=O)CCC[C@@H]2O` [Compound 32, (3E,4aS,5S)-3-Butyliden-4,4a,5,6,7,8-hexahydro-5-hydroxy-1,4a-dimethylnaphthalen-2(3H)-one], the IC50 in assay [1] (read-out: IC50 Target Cdc25A) is 10 to 50 µM; in assay [2], less than 10 µM; in assay [3] (read-out: IC50 Target PTP1B), 10 to 50 µM; in assay [5] it was less than 10 µM; in assay [6], less than 10 µM; in assay [4], 10 to 50 µM. Besides, the IC50 in assay [8] and in assay [7] was less than 10 µM each time.

In the case of `CCCCCCCCCCC#Cc1ccc(/C=C2\C[C@@]3(C)C(=C(C)C2=O)CCC[C@@H]3O)cc1` [Compound 45, (3E,4aS,5S)-3-[4-(Dodec-1-inyl)benzyliden]-4,4a,5,6,7,8-hexahydro-5-hydroxy-1,4a-dimethyl-naphthalen-2(3H)-on], the IC50 in assay [3] (read-out: IC50 Target PTP1B) was 10 to 50 µM; in assay [6], 10 to 50 µM; in assay [4], less than 10 µM.

As for `CC1=C2CCCC(O)C2(C)CC(=Cc2ccc(C#CCCCC#N)cc2)C1=O` [Compound 47, 6-{4-{(1E)-[(43,4aS)-1,2,3,4,4a,5-Hexahydro-4-hydroxy-4a,8-dimethyl-7-oxonaphthalen-6(7H)-yliden]-methyl}phenyl}hex-5-in-nitril], the IC50 in assay [1] (read-out: IC50 Target Cdc25A) was 10 to 50 µM; in assay [3] (read-out: IC50 Target PTP1B), 10 to 50 µM; in assay [6], 10 to 50 µM; in assay [4] it was less than 10 µM.

As to `CC1=C2CCC[C@H](O)[C@@]2(C)C/C(=C\c2ccc(C#Cc3cccc(F)c3)cc2)C1=O` [Compound 49, (3E,4aS,5S)-3-{4-[2-(3-Fluorphenyl)ethinyl]benzyliden}-4,4a,5,6,7,8-hexahydro-5-hydroxy-1,4a-dimethylnaphthalen-2(3H)-one], the IC50 in assay [1] (read-out: IC50 Target Cdc25A) was less than 10 µM; in assay [6] it was 10 to 50 µM; in assay [4], less than 10 µM.

On to `CC1=C2CCC[C@H](O)[C@@]2(C)C/C(=C\c2ccc(C#C[Si](C)(C)C)cc2)C1=O` [Compound 53, (3E,4aS,5S)-3-{4-[2-(Trimethylsilyl)ethinyl]benzyliden}-4,4a,5,6,7,8-hexahydro-5-hydroxy-1,4a-dimethylnaphthalen-2(3H)-on], for which the half-inhibitory concentration (IC50) in assay [1], in assay [3] and in assay [4] was 10 to 50 µM throughout.

`CC1=C2CC(c3ccccc3)CC(O)C2CCC1=O` (stereo not drawn) [Compound 167, 5-Hydroxy-1-methyl-7-phenyl-4,4a,5,6,7,8,-hexahydro-3H-naphthalen-2-one]: in assay [8] (read-out: IC50 Target AChE), the IC50 was less than 10 µM.

With `CC1(CCCc2ccccc2)C(=O)CC[C@@]2(C)C1CCC[C@@H]2O` (stereo partly drawn) [Compound 397, (4aS,5S)-5-Hydroxy-1,4a-dimethyl-1-(3-phenyl-propyl)-octahydro-naphthalen-2-one], the IC50 in assay [1] (read-out: IC50 Target Cdc25A), in assay [6] and in assay [4] was 10 to 50 µM each time.

Take `O=C1C(=Cc2ccco2)CCC2CC=CCC12` (stereo not drawn) [Compound 403, 2-Furan-2-ylmethylene-3,4,4a,5,8,8a-hexahydro-2H-naphthalen-1-one]: the IC50 in assay [2] and in assay [5] was less than 10 µM throughout.
